# Activity calls are given as the source filed them.
# What was measured:
# Cytochrome P450 1A2 = molecular target: T1, Cytochrome P450 1A2 (Homo sapiens, UniProt P05177);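 note: PubChem cytochrome P450 panel assay, CYP1A2 panel member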
# T1 sequence (P05177 whole entry): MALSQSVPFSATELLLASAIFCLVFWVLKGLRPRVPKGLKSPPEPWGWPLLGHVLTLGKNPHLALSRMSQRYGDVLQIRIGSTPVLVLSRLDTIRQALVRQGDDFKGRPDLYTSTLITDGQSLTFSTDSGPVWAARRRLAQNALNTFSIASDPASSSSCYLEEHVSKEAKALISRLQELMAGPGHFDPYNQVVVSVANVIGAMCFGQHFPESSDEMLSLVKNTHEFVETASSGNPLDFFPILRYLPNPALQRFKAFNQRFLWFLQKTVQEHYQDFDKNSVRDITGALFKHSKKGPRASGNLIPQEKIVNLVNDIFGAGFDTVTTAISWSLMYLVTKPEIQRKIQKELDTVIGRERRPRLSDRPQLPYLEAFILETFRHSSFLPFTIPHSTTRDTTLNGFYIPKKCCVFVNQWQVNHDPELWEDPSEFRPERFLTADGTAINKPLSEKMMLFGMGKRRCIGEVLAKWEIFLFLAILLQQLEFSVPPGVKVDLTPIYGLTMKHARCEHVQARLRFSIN
# [1] = Luminescence Cell-Based Dose Confirmation HTS to Identify Inhibitors of Platelet Dense Granule Release. [Related pubchem assays: 1663 (Primary HTS), 1678 (Summary of Project)]; assay type: functional
# [2] = molecular target: Luciferin 4-monooxygenase (Photinus pyralis, UniProt P08659); test: firefly luciferase enzyme inhibitors, dose response, biochemical, luminescence (AID 1891)
# cells = assay type: functional
# Protein skinhead-1 = molecular target: T2, Protein skinhead-1 (Caenorhabditis elegans, UniProt P34707); assay type: functional
# T2 sequence (P34707 whole entry): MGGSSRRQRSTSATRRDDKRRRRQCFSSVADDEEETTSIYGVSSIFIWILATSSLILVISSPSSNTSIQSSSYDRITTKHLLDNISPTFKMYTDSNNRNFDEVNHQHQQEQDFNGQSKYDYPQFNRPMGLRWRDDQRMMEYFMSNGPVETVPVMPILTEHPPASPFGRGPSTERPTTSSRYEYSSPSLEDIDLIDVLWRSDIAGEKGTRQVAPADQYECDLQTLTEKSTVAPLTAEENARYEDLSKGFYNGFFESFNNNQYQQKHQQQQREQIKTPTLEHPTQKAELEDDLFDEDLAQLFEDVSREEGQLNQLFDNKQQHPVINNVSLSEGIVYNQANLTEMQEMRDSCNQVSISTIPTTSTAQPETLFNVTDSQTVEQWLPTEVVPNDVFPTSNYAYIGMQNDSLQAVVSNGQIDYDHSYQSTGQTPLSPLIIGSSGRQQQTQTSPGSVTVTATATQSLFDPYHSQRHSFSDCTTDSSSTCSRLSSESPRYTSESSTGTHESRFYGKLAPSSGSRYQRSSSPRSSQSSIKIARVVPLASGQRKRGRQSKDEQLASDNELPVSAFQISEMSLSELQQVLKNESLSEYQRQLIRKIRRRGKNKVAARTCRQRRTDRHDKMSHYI
# [3] = molecular target: T3, Polyadenylate-binding protein 1 (Homo sapiens, UniProt P11940); test: PABP1 MLLE–PAM2 interaction inhibitors, dose response, miRNA deadenylation inhibitor project, biochemical, fluorescence polarization, Cy5-PAM2 peptide, secondary (AID 602260); assay type: functional; conditions: read-out: IC50_Mean
# [4] = growth suppression of beta-catenin-knockout colon cells, dose response, cell-based, HCT116, human colon tumor (AID 1045); assay type: functional;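 note: HCT116 colon tumor cells with beta catenin knocked out; cells exposed to compound for 60 hours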
# [5] = molecular target: T3, Polyadenylate-binding protein 1; test: PABP1 MLLE–PAM2 binding inhibitor potency, dose response, biochemical, fluorescence polarization, FITC-PAM2 peptide (AID 602259); assay type: functional; conditions: read-out: IC50_Mean
# [6] = growth suppression of PTEN-null colon cells, dose response, cell-based, HCT116 PTEN knockout (AID 1047); assay type: functional;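 note: HCT116 colon tumor cells with PTEN knocked out; cells exposed to compound for 60 hours before readout; potency for loss of cell viability measured by luminescence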
# [7] = Luminescence Cell-Based Dose Response HTS to Identify Activators of Luciferase Translation or Activity in H4 […] Cells. [Related pubchem assays: 1829 (Project Summary), 1814 (Primary HTS)]; assay type: functional
# H4 = test: Luminescence Cell-Based Dose Response HTS to Identify Activators of 5'UTR Stem-Loop Driven Prion Protein mRNA Translation in H4 Neuroglioblastoma Cells. [Related pubchem assays: 1829 (Project Summary), 1814 (Primary HTS)]; assay type: functional; conditions: Homo sapiens
# [8] = Luminescence Cell-Based Dose Confirmation HTS to Identify Activators of 5'UTR Stem-Loop Driven Alpha-Synuclein mRNA Translation in H4 Neuroglioblastoma Cells. [Related pubchem assays: 1829 (Project Summary), 1814 (Primary HTS)]; assay type: functional
# [9] = inhibitors of clade B AD8 Env fusion, dose response, cell-based, cherry-pick (AID 652062); assay type: functional;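 note: luciferase signal from cell-cell fusion driven by HIV-1 clade B AD8 Env; potency is for inhibitors of fusion seen as a drop in luminescence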
# [10] = cytotoxicity toward NIH3T3 fibroblasts, dose response, counter-screen, cell-based, ATP luminescence, mouse fibroblasts (AID 2010); assay type: functional;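 note: cells exposed to compound for about 90 hours before reading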
# [11] = inhibitors of intracellular T. cruzi replication, confirmation, NIH3T3 host cells, beta-gal luminescence (AID 2044); assay type: functional, cell-based;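 note: intracellular parasites grown in NIH/3T3 mouse fibroblasts as host cells; luminescent beta-galactosidase reporter signal from transgenic T. cruzi replicating inside host cells; inhibitors lower the luminescence signal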
# Cytochrome P450 2C19 = Cytochrome P450 2C19 (Homo sapiens, UniProt P33261); test: Cytochrome panel assay with activity outcomes. Panel member name: p450-cyp2c19 Compounds with AC50 equal or less than 10 uM are considered active; assay type: functional
# [12] = molecular target: T4, Heat shock factor protein 1 (Mus musculus, UniProt P38532); test: HSF1 potentiators in luciferase reporter cells, confirmation, cell-based, NIH3T3, luminescence, dose retest (AID 435004); assay type: functional;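 note: stress induced by proteasome inhibitor MG132 added 30 min after compound; luciferase reporter driven by HSF1 response element in NIH3T3 cells; actives raise luminescence as potentiators of the MG132 stress response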
# T4 sequence (P38532 whole entry): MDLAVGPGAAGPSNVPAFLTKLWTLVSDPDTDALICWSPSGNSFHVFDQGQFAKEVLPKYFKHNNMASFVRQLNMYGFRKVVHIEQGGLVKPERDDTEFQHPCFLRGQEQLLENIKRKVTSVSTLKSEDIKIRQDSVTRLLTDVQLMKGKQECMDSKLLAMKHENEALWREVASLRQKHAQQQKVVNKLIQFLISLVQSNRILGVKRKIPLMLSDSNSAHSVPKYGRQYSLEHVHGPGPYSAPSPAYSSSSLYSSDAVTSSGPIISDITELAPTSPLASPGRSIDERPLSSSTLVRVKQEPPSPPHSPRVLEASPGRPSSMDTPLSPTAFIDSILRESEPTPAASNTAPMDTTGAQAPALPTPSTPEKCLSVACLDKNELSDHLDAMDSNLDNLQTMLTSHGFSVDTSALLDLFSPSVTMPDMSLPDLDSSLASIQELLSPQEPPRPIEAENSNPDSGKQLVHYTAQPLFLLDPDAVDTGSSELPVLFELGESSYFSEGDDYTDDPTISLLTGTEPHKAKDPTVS
# Cytochrome P450 3A4 = Cytochrome P450 3A4 (Homo sapiens, UniProt P08684);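 note: CYP3A4 tested as one member of a cytochrome P450 panel screen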
# Cytochrome P450 2D6 = Cytochrome P450 2D6 (Homo sapiens, UniProt P10635);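 note: CYP2D6 member of a cytochrome P450 panel assay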
# Cytochrome P450 2C9 = Cytochrome P450 2C9 (Homo sapiens, UniProt P11712)
# [13] = Luminescence Cell-Based Dose Response HTS to Identify Inhibitors of 5'UTR Stem-Loop Driven Prion Protein mRNA Translation in H4 Neuroglioblastoma Cells. [Related pubchem assays: 1827 (Project Summary), 1813 (Primary HTS)]; assay type: functional
# [14] = inhibitors of firefly luciferase expression or activity, dose response, H4 neuroglioma cells, luminescence (AID 1990); assay type: functional, cell-based
# [15] = inhibitors of SNCA 5'UTR-driven reporter translation, confirmation, H4 neuroglioma cells, luminescence (AID 1988); assay type: functional, cell-based
# Chain of Cytochrome P450 2C9 (P11712 whole entry): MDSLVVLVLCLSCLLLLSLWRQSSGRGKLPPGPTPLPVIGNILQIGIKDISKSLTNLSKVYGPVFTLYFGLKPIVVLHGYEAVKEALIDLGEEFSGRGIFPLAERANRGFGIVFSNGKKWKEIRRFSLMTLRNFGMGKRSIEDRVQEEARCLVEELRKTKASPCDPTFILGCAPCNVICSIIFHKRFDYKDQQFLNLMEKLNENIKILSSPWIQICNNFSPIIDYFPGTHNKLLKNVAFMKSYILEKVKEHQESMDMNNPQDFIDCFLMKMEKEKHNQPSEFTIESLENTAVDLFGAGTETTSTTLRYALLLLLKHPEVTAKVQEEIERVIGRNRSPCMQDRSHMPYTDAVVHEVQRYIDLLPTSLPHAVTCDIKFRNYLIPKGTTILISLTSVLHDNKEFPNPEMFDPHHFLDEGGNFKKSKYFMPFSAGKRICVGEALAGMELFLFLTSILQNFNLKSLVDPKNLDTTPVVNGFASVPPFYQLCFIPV
# Chain of Cytochrome P450 2C19 (P33261 whole entry): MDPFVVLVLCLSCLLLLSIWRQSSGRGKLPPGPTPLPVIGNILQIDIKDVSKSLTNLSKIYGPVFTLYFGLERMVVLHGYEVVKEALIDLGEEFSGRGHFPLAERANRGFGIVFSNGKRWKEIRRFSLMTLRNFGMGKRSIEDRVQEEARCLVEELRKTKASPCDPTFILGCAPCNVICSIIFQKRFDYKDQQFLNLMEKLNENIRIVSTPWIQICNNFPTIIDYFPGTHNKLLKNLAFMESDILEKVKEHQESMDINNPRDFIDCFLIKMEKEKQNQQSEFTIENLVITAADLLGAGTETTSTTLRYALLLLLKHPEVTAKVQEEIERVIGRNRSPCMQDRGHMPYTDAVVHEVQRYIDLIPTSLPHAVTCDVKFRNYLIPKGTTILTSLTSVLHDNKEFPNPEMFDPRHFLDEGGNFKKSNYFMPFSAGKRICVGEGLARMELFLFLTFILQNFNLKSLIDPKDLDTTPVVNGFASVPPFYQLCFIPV
# Chain of Luciferin 4-monooxygenase (P08659 whole entry): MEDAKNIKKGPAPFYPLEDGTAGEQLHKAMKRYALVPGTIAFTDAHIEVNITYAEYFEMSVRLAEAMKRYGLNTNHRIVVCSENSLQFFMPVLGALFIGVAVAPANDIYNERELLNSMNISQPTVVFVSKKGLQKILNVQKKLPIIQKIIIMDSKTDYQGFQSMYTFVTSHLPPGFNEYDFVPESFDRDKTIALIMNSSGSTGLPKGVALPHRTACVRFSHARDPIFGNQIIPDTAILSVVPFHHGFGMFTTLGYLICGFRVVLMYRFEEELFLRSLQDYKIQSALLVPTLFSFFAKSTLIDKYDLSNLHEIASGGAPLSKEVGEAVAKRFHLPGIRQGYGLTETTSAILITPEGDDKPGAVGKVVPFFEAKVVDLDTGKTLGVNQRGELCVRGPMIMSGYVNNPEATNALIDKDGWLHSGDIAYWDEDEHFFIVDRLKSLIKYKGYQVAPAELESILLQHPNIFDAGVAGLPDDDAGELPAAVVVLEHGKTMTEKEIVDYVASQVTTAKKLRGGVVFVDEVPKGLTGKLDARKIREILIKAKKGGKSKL
# Chain of Cytochrome P450 2D6 (P10635 whole entry): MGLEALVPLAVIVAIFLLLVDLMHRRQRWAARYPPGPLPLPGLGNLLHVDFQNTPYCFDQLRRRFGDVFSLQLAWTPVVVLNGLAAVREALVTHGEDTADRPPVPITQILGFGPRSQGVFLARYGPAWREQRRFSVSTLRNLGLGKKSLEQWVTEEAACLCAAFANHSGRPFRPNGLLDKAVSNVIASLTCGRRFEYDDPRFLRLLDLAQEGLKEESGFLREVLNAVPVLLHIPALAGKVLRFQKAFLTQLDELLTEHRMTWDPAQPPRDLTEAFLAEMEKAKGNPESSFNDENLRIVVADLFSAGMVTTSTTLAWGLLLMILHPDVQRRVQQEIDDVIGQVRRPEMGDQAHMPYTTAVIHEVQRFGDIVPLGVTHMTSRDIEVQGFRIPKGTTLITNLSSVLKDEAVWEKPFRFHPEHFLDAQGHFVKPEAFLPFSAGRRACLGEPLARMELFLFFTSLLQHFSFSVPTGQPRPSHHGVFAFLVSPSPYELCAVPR
# T3 sequence (P11940 whole entry): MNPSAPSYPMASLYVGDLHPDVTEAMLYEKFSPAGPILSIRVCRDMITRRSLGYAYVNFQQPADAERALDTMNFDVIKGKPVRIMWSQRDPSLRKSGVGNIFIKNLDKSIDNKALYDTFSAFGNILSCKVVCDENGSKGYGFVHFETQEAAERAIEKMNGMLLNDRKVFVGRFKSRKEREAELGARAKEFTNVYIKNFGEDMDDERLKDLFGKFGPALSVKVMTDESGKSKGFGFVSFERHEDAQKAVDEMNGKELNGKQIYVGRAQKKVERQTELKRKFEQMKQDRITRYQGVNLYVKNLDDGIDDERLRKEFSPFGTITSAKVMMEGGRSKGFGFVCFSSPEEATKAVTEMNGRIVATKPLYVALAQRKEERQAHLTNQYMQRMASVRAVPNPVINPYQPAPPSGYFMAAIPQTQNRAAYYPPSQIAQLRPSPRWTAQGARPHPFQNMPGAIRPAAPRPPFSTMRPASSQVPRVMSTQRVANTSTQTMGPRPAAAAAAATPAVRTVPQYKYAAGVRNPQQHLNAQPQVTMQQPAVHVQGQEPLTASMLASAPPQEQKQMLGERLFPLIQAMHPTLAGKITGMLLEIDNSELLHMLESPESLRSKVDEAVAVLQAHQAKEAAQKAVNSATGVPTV
# Chain of Cytochrome P450 3A4 (P08684 whole entry): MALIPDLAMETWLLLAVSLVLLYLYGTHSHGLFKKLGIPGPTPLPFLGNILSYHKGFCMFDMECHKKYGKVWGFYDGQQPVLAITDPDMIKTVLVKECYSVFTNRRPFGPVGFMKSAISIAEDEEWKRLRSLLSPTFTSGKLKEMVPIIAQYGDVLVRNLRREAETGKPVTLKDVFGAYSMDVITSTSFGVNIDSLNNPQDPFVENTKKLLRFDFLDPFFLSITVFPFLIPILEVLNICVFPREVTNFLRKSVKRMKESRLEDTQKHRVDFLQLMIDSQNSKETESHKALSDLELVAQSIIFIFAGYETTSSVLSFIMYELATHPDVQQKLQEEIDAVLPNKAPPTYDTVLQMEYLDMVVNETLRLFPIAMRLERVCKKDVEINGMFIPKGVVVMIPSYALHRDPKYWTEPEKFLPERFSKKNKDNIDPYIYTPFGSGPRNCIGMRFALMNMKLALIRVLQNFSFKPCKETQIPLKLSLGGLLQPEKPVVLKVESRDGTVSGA
smiles,measurement,setting,value
O=C(CCNC(=O)Cn1cnc2ccccc2c1=O)NCC1COc2ccccc2O1 (stereo unspecified),AC50,Cytochrome P450 1A2,0.01 µM (inconclusive)
CCOC(=O)C1=C(C)N(c2ccc(C)cc2)C(=O)/C1=C\c1ccc(O)c(OC)c1,EC50,[1],> 112 µM (not active)
same,EC50,[2],> 112 µM (not active)
CCCSc1cc(NCCOC(C)=O)c([N+](=O)[O-])c2nonc12,EC50,[1],> 112 µM (not active)
same,EC50,[2],> 112 µM (not active)
CC(C)c1nnc(NC(=O)c2cc3cc(Br)ccc3oc2=O)s1,IC50,cells,0.66 µM (active)
CSc1cccc(NC(=O)c2cc(S(=O)(=O)N3CCCC3)cn2C)c1,EC50,[1],> 112 µM (not active)
same,EC50,[2],> 112 µM (not active)
FC(F)(F)c1cc(-c2ccccc2)nc(NC2CCCC2)n1,IC50,Protein skinhead-1,> 100 µM (inactive)
O=C(Cc1cccc2ccccc12)NC(NC(=S)Nc1ccccc1Cl)C(Cl)(Cl)Cl (stereo unspecified),IC50,[3],> 66 µM (inactive)
same,EC50,[4],16.7 µM (active)
same,IC50,[5],> 66 µM (inactive)
same,EC50,[6],15.2 µM (active)
CCc1ccc2nc(O)c(CN(Cc3nnnn3C3CCCC3)C3CCCCC3)cc2c1,EC50,[7],> 120 µM (not active)
same,EC50,[4],19.7 µM (active)
same,EC50,[6],18.8 µM (active)
same,EC50,H4,> 120 µM (not active)
same,EC50,[8],> 120 µM (not active)
CCOC(=O)c1ccc(NC(=O)c2cccc(S(=O)(=O)N3CCOCC3)c2)cc1,EC50,[4],22 µM (active)
same,EC50,[6],30.4 µM (active)
O=C1[C@@H]2Cc3c([nH]c4ccccc34)[C@@H](c3ccccc3)N2C(=O)[C@@H]2Cc3c([nH]c4ccccc34)[C@@H](c3ccccc3)N12,EC50,[4],9.96 µM (active)
same,EC50,[6],9.58 µM (active)
Cc1ccc(-c2nc(=S)c3c(n2CCN2CCOCC2)CC(C)(C)OC3)cc1,IC50,Protein skinhead-1,> 100 µM (inactive)
CC(=O)NC(CCS(C)(=O)=O)C(=O)Nc1cc(C)on1 (stereo unspecified),EC50,[1],> 112 µM (not active)
same,EC50,[2],> 112 µM (not active)
COC(=O)c1ccc(NC(=O)c2ccc(CN3CCOCC3)cc2)cc1,AC50,[9],43.4 µM (active)
COc1ccc2[nH]cc(CCNc3ncnc4ccc(-c5ccccc5CN(C)C)cc34)c2c1,AC50,Cytochrome P450 1A2,31.6 µM (inconclusive)
COC(=O)[C@H](C)[C@H]1C[C@]1(C)[C@H](NC(=O)OCc1ccccc1)c1ccccc1,AC50,Cytochrome P450 1A2,15.8 µM (inconclusive)
O=[N+]([O-])c1cc(CN2CCCC2)ccc1Sc1ccc(Cl)cc1,IC50,Protein skinhead-1,17.9 µM (active)
same,EC50,[10],9.06 µM (active)
same,EC50,[11],0.232 µM (active)
O=C(CN1CCN(S(=O)(=O)c2ccc(Br)cc2)CC1)Nc1ccc2c(c1)OCO2,IC50,Protein skinhead-1,> 100 µM (inactive)
O=C(Nc1ccc(Cl)cc1)c1cnc(-c2ccccc2)nc1-c1ccccc1,AC50,Cytochrome P450 2C19; read-out: AC50,1 µM (inconclusive)
same,EC50,[4],6.45 µM (active)
same,EC50,[6],7.19 µM (active)
SC1=Nc2ccc(Cl)cc2C(c2ccccc2)=NC1,IC50,cells,> 50 µM (active)
same,EC50,[12],> 260 µM (inactive)
COC(=O)[C@@]1(Cc2ccc(F)cc2)[C@H]2c3cc(C(=O)N(C)C)n(CCc4c[nH]c5ccc(OC)cc45)c3C[C@H]2CN1C(=O)c1ccccc1,AC50,Cytochrome P450 2C19; read-out: AC50,39.8 µM (inconclusive)
same,AC50,Cytochrome P450 1A2,12.6 µM (inconclusive)
c1ccc(-c2nc3c4ccccc4ccn3c2CN2CCCCC2)cc1,EC50,[1],> 112 µM (not active)
same,EC50,[2],14.8 µM (active)
CCC(c1nnnn1CC1CCCO1)N(CCN1CCOCC1)Cc1cc2cc(C)ccc2nc1O (stereo unspecified),AC50,Cytochrome P450 1A2,25.1 µM (inconclusive)
COc1cccc(Cn2c(=O)c(-c3cn(C)c4ccccc34)nc3cnc(N4CCNCC4)nc32)c1,AC50,Cytochrome P450 1A2,15.8 µM (inconclusive)
same,AC50,Cytochrome P450 3A4,15.8 µM (inconclusive)
same,AC50,Cytochrome P450 2D6,39.8 µM (inconclusive)
CN(C)C(=O)c1ccc(-c2nc(NCc3cccnc3)c3ccccc3n2)cc1,AC50,Cytochrome P450 1A2,10 µM (inconclusive)
same,AC50,Cytochrome P450 2D6,39.8 µM (inconclusive)
O=C(NCC1CCCO1)c1ccc(NC(=O)c2cccc(Cl)c2)cc1 (stereo unspecified),EC50,[1],> 112 µM (not active)
same,EC50,[2],> 112 µM (not active)
Cc1c(C(=O)N2CCCCCC2)nnn1-c1nonc1N,AC50,Cytochrome P450 2C9,14.1 µM (inconclusive)
same,AC50,Cytochrome P450 1A2,15.8 µM (inconclusive)
same,AC50,Cytochrome P450 2D6,17.8 µM (inconclusive)
Clc1ccc2oc(-c3ccccn3)nc2c1,IC50,Protein skinhead-1,35.9 µM (active)
C(=C1c2ccccc2-c2ccccc21)c1ccccn1,IC50,Protein skinhead-1,59.4 µM (inactive)
Oc1ccccc1CN1CCCC(N2CCN(c3cccc(C(F)(F)F)c3)CC2)C1 (stereo unspecified),IC50,cells,22.9 µM (active)
CC#CCCCC(=O)Nc1ccc(C(=O)O)cc1,AC50,Cytochrome P450 2C19,inconclusive
same,AC50,Cytochrome P450 2C9,39.8 µM (inconclusive)
same,AC50,Cytochrome P450 1A2,28.2 µM (inconclusive)
O=C(Nc1ccccc1F)C1CCCC1,IC50,Protein skinhead-1,> 100 µM (inactive)
C[C@@H]1CN([C@@H](C)CO)C(=O)c2cc(C3=CCCC3)cnc2O[C@@H]1CN(C)Cc1ccc(C(=O)O)cc1,AC50,[9],10.9 µM (active)
OCC/N=C1\CCCc2c1[nH]c1ccc(Br)cc21,EC50,[13],48.8 µM (active)
same,AC50,Cytochrome P450 2C9,7.08 µM (inconclusive)
same,EC50,[14],< 0.1 µM (active)
same,AC50,Cytochrome P450 1A2,0.251 µM (inconclusive)
same,EC50,[15],8.41 µM (active)
same,AC50,Cytochrome P450 2D6,1 µM (inconclusive)
COc1cccc(C(=O)N/N=C/c2c[nH]nc2-c2ccc(OC)cc2OC)c1,EC50,[1],> 112 µM (not active)
same,EC50,[2],> 112 µM (not active)
CC1(C)CCC(C)(C)c2cc(C(=O)Nc3ccc(C(=O)O)cc3)ccc21,AC50,Cytochrome P450 2C19; read-out: AC50,31.6 µM (inconclusive)
same,AC50,Cytochrome P450 2C9,15.8 µM (inconclusive)
same,AC50,Cytochrome P450 1A2,31.6 µM (inconclusive)
